Assays:
Assay type in all cases: cell-based
MDA-MB-231 cells = test: [1-13C]glucose labeling and LC-MS measurement of relative glycolysis rate; details: 10 μM KU-55933, MDA-MB-231 cells, 10 mM D-[1-13C]-glucose; samples at 1, 3 and 6 hours of labeling (as well as 9 hours, p<0.05)
Experimental: FIGS. 7A-B. A) Sub-confluent MDA-MB-231 cells were serum-starved overnight. Cells were washed with PBS and were then pre-treated with 10 μM KU-55933 (Halaby et al., 2008) for 30 minutes in the glucose- and serum-free medium. Fluorescently-tagged 2-NBDG (30 μg/ml) was then added for 30 minutes. Cells were treated with 100 nM insulin for another 45 minutes. Glucose Uptake was then measured following the manufacturer's instructions (Cayman Chemical). B) MDA-MB-231 cells were cultured in DMEM containing 10% FBS. After reaching […] confluent, cells were serum-starved overnight. Cells were then washed with PBS and incubated in serum- and glucose/pyruvate-free DMEM for 90 minutes. The labeling was initiated after replacing the medium with fresh serum- and glucose/pyruvate-free DMEM supplemented with 10 mM D-[1-^13C]-glucose ±10 μM KU-55933. […] 40 μL of medium was taken and diluted with 160 μL of methanol to precipitate the proteins. For LC-MS analysis, 2 μL of the supernatant were injected and analyzed with the Q-Exactive mass spec. The bar graph represents the average relative glycolysis rate ±SEM from 3 individual experiments (*p<0.05). […] These breast cancer cells were grown in DMEM supplemented with antibiotics and 10% fetal bovine serum. […] The relative rate of glycolysis for each cancer cell line was measured by the incorporation of [1-^13C]glucose into [3-^13C]lactate. […]

MDA-MB-231 = test: 2-NBDG glucose uptake assay; details: MDA-MB-231, 100 nM insulin for 45 minutes, 30 μg/mL 2-NBDG
Experimental: (§1) FIG. 2. […] Sub-confluent cells were serum-starved overnight. Cells were then washed with PBS and cell culture medium was replaced with glucose- and serum-free medium. Fluorescently-tagged 2-NBDG (Cayman Chemical) was then added at a concentration of 30 μg/mL for 30 minutes. After addition of 2-NBDG, cells were treated with 100 nM insulin for another 45 minutes. Glucose uptake was then measured as described hereinbelow. The graph represents the averages of 2-NBDG glucose uptake ±SEM from 3 individual experiments (p<0.05).
(§2) Glucose uptake was analyzed using a 2-NBDG (2-deoxy-2-[(7-nitro-2,1,3-benzoxadiazol-4-yl)amino]-D-glucose, a fluorescently labeled 2-deoxyglucose) glucose uptake kit from Cayman Chemical. Briefly, cells were plated at 200,000 cells/well in a 24-well plate and allowed to grow to sub-confluency. Cells were then serum starved overnight. The next morning, cells were incubated in serum- and glucose-free medium for 30 minutes. Cells were then incubated with 30 μg/mL 2-NBDG for another 30 minutes. After incubation, cells were treated with 100 nM insulin for 45 minutes. Cells were then transferred to a clear-bottom black 96 cell plate. The plate was subjected to centrifugation at 400×g for 5 minutes. […] Signal intensity was measured with a Synergy 2 (BioTek) microplate reader at excitation/emission=485/535 nm.

MDA-MB-453 = test: 2-NBDG glucose uptake assay; details: MDA-MB-453, 100 nM insulin for 45 minutes, 30 μg/mL 2-NBDG
Experimental: as §1, §2

Compound | relative glycolysis rate ([1-13C]glucose to [3-13C]lactate) (MDA-MB-231 cells) | glucose uptake (2-NBDG) in response to insulin stimulation (MDA-MB-231) | glucose uptake (2-NBDG) in response to insulin stimulation (MDA-MB-453)
O=c1cc(-c2cccc3c2Sc2ccccc2S3)oc(N2CCOCC2)c1 [KU-55933] | significant inhibition of glycolysis rate |  | 
insulin |  | enhanced glucose uptake | enhanced glucose uptake
